Reference: patent publication US10214533B2, “N-acyl-(3-substituted)-5,6,7,8-tetrahydro-[1,2,4]triazolo[4,3-a]pyrazines as selective NK-3 receptor antagonists, pharmaceutical composition, methods for use in NK-3 receptor-mediated disorders” (OGEDA SA, priority 2013, dated 2019)

Tests used:
[1] = test system: circulating LH levels; assay: Castrated male rat model, circulating luteinizing hormone (LH) levels, oral dosing; type: in vivo; settings: castrated male SD rat, single oral dose less than or equal to 30 mg/kg, p<0.05
Method: The effect of compounds of the invention to inhibit luteinizing hormone (LH) secretion is determined by the following biological studies. In humans and rodents, castration is well-precedented to permit heightened, persistent GnRH signaling and consequent elevation of circulating LH. Thus, a castrated rat model is used to provide a broad index for measurement of LH inhibition as a marker of test compound inhibition of the GnRH signaling pathway. Castrated adult male Sprague-Dawley (SD) rats (150-175 g) were purchased from Janvier (St Berthevin, France). All animals were housed 2 per cage in a temperature-controlled room (22±2° C.) and 50±5% relative humidity with a 12 hour/12 hour light/dark cycles (lights off at 6 h00 pm). The animals were allowed 3 weeks of postoperative recovery prior to study. Animals were handled on a daily basis. Standard diet and tap water were provided ad libitum. Animal cage litters were changed once a week. On the study day, animals were acclimated to the procedure room for a period of one hour prior to the initiation of the experiment. Compounds of the invention were formulated in 0.5% methyl cellulose. After basal sampling (TO) a single dose of compounds of the invention or vehicle was administrated orally to rats. […] Serum LH levels were determined using radioimmunoassay kit from RIAZEN—Rat LH, Zentech (Liège, Belgium). […]

[2] = test system: plasma protein; assay: Determination of plasma protein binding (rapid equilibrium dialysis); type: in vitro ADME; settings: 4 hours at 37° C.
Method: The determination of plasma protein binding (PPB) of a compound is enabled by equilibrium dialysis, an accepted and standard method for reliable estimation of the non-bound drug fraction in plasma. RED (Rapid Equilibrium Dialysis) device insert is made of two side-by-side chambers separated by an O-ring-sealed vertical cylinder of dialysis membrane (MWCO ˜8,000). […] After 4 hours incubation at 37° C. under shaking, an aliquot is removed from each chamber and analyzed by a LC-MS/MS procedure enables the determination of both free and bound drug.
The “free fraction” may be calculated as 100%−% rPPB (i.e. the complementary percentage of that disclosed in Table 4, corresponding to the drug concentration that is unbound and therefore available to engage biological target and elicit pharmacological activity).

| Structure (SMILES) | Exposure (% rPPB), bound drug fraction to the plasma protein [2] [%] | Suppression of circulating LH levels [1] |
| --- | --- | --- |
| Cc1nsc(-c2nnc3n2CCN(C(=O)c2ccc(F)cc2)C3)n1 [Compound 1, (4-fluorophenyl)(3-(3-methyl-1,2,4-thiadiazol-5-yl)-5,6-dihydro-[1,2,4]triazolo[4,3-a]pyrazin-7(8H)-yl)methanone] |  | significantly suppressed circulating LH levels |
| Cc1nsc(-c2nnc3n2CCN(C(=O)c2ccc(Cl)cc2)C3)n1 [Compound 2, (4-chlorophenyl)(3-(3-methyl-1,2,4-thiadiazol-5-yl)-5,6-dihydro-[1,2,4]triazolo[4,3-a]pyrazin-7(8H)-yl)methanone] | 49 |  |
| Cc1nsc(-c2nnc3n2CCN(C(=O)c2ccc(Cl)c(F)c2)C3)n1 [Compound 3, (4-chloro-3-fluorophenyl)(3-(3-methyl-1,2,4-thiadiazol-5-yl)-5,6-dihydro-[1,2,4]triazolo[4,3-a]pyrazin-7(8H)-yl)methanone] | 54 |  |
| Cc1nsc(-c2nnc3n2CCN(C(=O)c2ccc(F)c(Cl)c2)C3)n1 [Compound 4, (3-chloro-4-fluorophenyl)(3-(3-methyl-1,2,4-thiadiazol-5-yl)-5,6-dihydro-[1,2,4]triazolo[4,3-a]pyrazin-7(8H)-yl)methanone] | 52 |  |
| Cc1nsc(-c2nnc3n2CCN(C(=O)c2ccc(F)c(F)c2)C3)n1 [Compound 5, (3,4-difluorophenyl)(3-(3-methyl-1,2,4-thiadiazol-5-yl)-5,6-dihydro-[1,2,4]triazolo[4,3-a]pyrazin-7(8H)-yl)methanone] | 28 |  |

The next lines start with results.

| Exposure (% rPPB), bound drug fraction to the plasma protein [2] [%] | Structure (SMILES) | Suppression of circulating LH levels [1] |
| --- | --- | --- |
| 27 | Cc1nsc(-c2nnc3n2CCN(C(=O)c2cc(F)c(F)c(F)c2)C3)n1 [Compound 6, (3-(3-methyl-1,2,4-thiadiazol-5-yl)-5,6-dihydro-[1,2,4]triazolo[4,3-a]pyrazin-7(8H)-yl)(3,4,5-trifluorophenyl)methanone] |  |
| 25 | Cc1nsc(-c2nnc3n2CCN(C(=O)c2ccc(F)c(F)c2F)C3)n1 [Compound 7, (3-(3-methyl-1,2,4-thiadiazol-5-yl)-5,6-dihydro-[1,2,4]triazolo[4,3-a]pyrazin-7(8H)-yl)(2,3,4-trifluorophenyl)methanone] |  |
